Laboratory results reported in ChEMBL document CHEMBL1201862, “PubChem BioAssay data set” (2004).
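Where inhibition never reached the appropriate level, the endpoint shown equals the highest concentration tested. Otherwise, values were interpolated linearly from a five-concentration, 48-hour dose response in 96-well plates. Abbreviation: GI50, concentration required for 50% inhibition of growth.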 The source made the active and inactive calls. No stated cut-off is given here; in the data, active = GI50 up to about 1.1 µM and inactive = higher.

Key:
Assay in all cases: DTP human tumour cell line panel, 48 h
HT-29 = system: HT-29
SF-295 = system: SF-295
MCF7 = system: MCF7
786-0 = system: 786-0
IGROV-1 = system: IGROV-1
MDA-MB-435 = system: MDA-MB-435
KM12 = system: KM12
HCC 2998 = system: HCC 2998
DU-145 = system: DU-145
OVCAR-8 = system: OVCAR-8
SK-MEL-5 = system: SK-MEL-5
HCT-15 = system: HCT-15
NCI-H23 = system: NCI-H23
Malme-3M = system: Malme-3M
NCI-H460 = system: NCI-H460
A498 = system: A498
SK-MEL-2 = system: SK-MEL-2
U-251 = system: U-251
SW-620 = system: SW-620

SMILES	GI50 (HT-29)	GI50 (SF-295)	GI50 (MCF7)	GI50 (786-0)	GI50 (IGROV-1)	GI50 (MDA-MB-435)	GI50 (KM12)	GI50 (HCC 2998)	GI50 (DU-145)	GI50 (OVCAR-8)	GI50 (SK-MEL-5)	GI50 (HCT-15) [µM]	GI50 (NCI-H23)	GI50 (Malme-3M)	GI50 (NCI-H460)	GI50 (A498)	GI50 (SK-MEL-2)	GI50 (U-251)	GI50 (SW-620)
CCOC(=O)c1c(CN2CCNCC2)nc2ccc(Cl)cc2c1-c1ccccc1	1.79 µM (inactive)	2.24 µM (inactive)	11 µM (inactive)	1.65 µM (inactive)	5 µM (inactive)	2.31 µM (inactive)	3.44 µM (inactive)	1.6 µM (inactive)	16.2 µM (inactive)	4.21 µM (inactive)	1.42 µM (inactive)	3.91	10.4 µM (inactive)	1.94 µM (inactive)	2.48 µM (inactive)	7.26 µM (inactive)	1.79 µM (inactive)	12.9 µM (inactive)	2.03 µM (inactive)
CC(=O)Nc1ccc(-c2nnc(SCC(=O)Nc3cccc(Cl)c3)o2)cc1	17.2 µM (inactive)	18.8 µM (inactive)		6.49 µM (inactive)	8.97 µM (inactive)		16 µM (inactive)	18.6 µM (inactive)		33.2 µM (inactive)	13.9 µM (inactive)	14.9	9.79 µM (inactive)	12.4 µM (inactive)	13.1 µM (inactive)	16.3 µM (inactive)	20 µM (inactive)	9.84 µM (inactive)	13.5 µM (inactive)
CC(NS(=O)(=O)c1ccc([N+](=O)[O-])cc1)C(=O)O (stereo unspecified)	> 100 µM (inactive)	> 100 µM (inactive)		> 100 µM (inactive)	> 100 µM (inactive)		> 100 µM (inactive)	> 100 µM (inactive)		> 100 µM (inactive)	> 100 µM (inactive)	> 100	> 100 µM (inactive)	> 100 µM (inactive)	> 100 µM (inactive)	> 100 µM (inactive)	> 100 µM (inactive)	> 100 µM (inactive)	> 100 µM (inactive)
COC(=O)CC1C(=O)OCc2c1cc1n(c2=O)Cc2c-1nc1ccccc1c2OC (stereo unspecified)	> 100 µM (inactive)			37.3 µM (inactive)	> 100 µM (inactive)			> 100 µM (inactive)		> 100 µM (inactive)	61.1 µM (inactive)	> 100	17.3 µM (inactive)	> 100 µM (inactive)	4.16 µM (inactive)	> 100 µM (inactive)	> 100 µM (inactive)	68.9 µM (inactive)	> 100 µM (inactive)
CC(=O)NNc1nc(C)c(C(=O)NNC(=O)C(=O)Nc2c(C)cccc2C)s1	36.6 µM (inactive)	40.6 µM (inactive)		50.8 µM (inactive)	46.1 µM (inactive)		35.1 µM (inactive)	95.9 µM (inactive)		26.2 µM (inactive)	53 µM (inactive)	32.3	24.7 µM (inactive)	53.1 µM (inactive)	33 µM (inactive)	> 100 µM (inactive)	48.9 µM (inactive)	43.9 µM (inactive)	42.9 µM (inactive)
O=C1CC(O)C=C1Nc1ccc(Cl)cc1 (stereo unspecified)	13.7 µM (inactive)	33.1 µM (inactive)		58.2 µM (inactive)	43.1 µM (inactive)		13.4 µM (inactive)	12.1 µM (inactive)		49.2 µM (inactive)	30.5 µM (inactive)		29 µM (inactive)	59.8 µM (inactive)	23.1 µM (inactive)	13.8 µM (inactive)	29.6 µM (inactive)	49.3 µM (inactive)	34.1 µM (inactive)
CCOP(=O)(OCC)c1ccc(=O)[nH]c1-c1cccs1	> 100 µM (inactive)	> 100 µM (inactive)	> 100 µM (inactive)	> 100 µM (inactive)	> 100 µM (inactive)	> 100 µM (inactive)	> 100 µM (inactive)	> 100 µM (inactive)	> 100 µM (inactive)	> 100 µM (inactive)	> 100 µM (inactive)	> 100	> 100 µM (inactive)	> 100 µM (inactive)	> 100 µM (inactive)	> 100 µM (inactive)	> 100 µM (inactive)	> 100 µM (inactive)	> 100 µM (inactive)
COc1ccc(/C=C/c2cc(OC)c(OC)c(OC)c2)cc1OC	> 72.8 µM (inactive)	65.2 µM (inactive)		> 76.9 µM (inactive)	> 100 µM (inactive)		> 100 µM (inactive)	> 100 µM (inactive)		> 100 µM (inactive)	> 74.5 µM (inactive)	> 56.2	> 100 µM (inactive)	> 100 µM (inactive)	> 100 µM (inactive)	> 74.1 µM (inactive)	> 100 µM (inactive)	> 100 µM (inactive)	> 100 µM (inactive)
